Measured values taken from PubChem BioAssay AID1918955 (Molecular Pharmacology Branch, DTP, NCI, 2023).

Tested on: NCI/ADR-RES complex spheroid viability
Experiment: Anticancer human tumor NCI/ADR-RES cell line growth inhibition;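 also: spheroids exposed to compounds for 7 days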;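 as to viability, T/C: 100% = DMSO vehicle treated spheroids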
Details: for IC50: curve of first compound; for viability, T/C: stronger effect = lower value
Source text: Multicellular complex tumor spheroid response to LSD1 Inhibitor Iadademstat in combination with a variety of drugs and investigational agents in selected tumor cell lines
The current study was undertaken to assess response to LSD1 inhibitors in combination with standard-of-care drugs and investigational agents in solid tumor complex spheroid models as well as in the K-562 leukemia. Complex spheroids include a stromal component modeled by human endothelial cells (HUVEC) and fibroblasts modeled by human mesenchymal stem cells (MSCs). The concentration ranges selected for each drug and investigational agent were based upon clinically achievable concentrations if the clinical Cmax of the agent was known.
Compounds. The drugs and investigational agents used in this study are listed on Table 1. All of the agents used, including staurosporine (NSC755774) and gemcitabine (NSC613327), were obtained from the Developmental Therapeutics Program, NCI. FDA-approved anticancer drugs are available from the NCI at http://dtp.nci.nih.gov/branches/dscb/oncology_drugset_explanation.html. Drugs and investigational agents were >95% pure by proton nuclear magnetic resonance (NMR) and liquid chromatography/mass spectrometry (LC/MS). Stock solutions were prepared at 400x in DMSO, stored at -70 degrees C, and diluted in fresh medium prior to their use. The final concentration of DMSO in cell culture wells never exceeded 0.25% (v/v). The FDA-approved anticancer drug set is available from the Developmental Therapeutics Program at https://dtp.cancer.gov/organization/dscb/obtaining/available_plates.htm. All drugs and investigational agents were tested over a range starting from a high concentration at or near the clinical Cmax and decreasing in half-log increments. If the clinical Cmax for an agent had not been determined, the highest concentration tested was 10 microM.
Cell Lines. The patient-derived cancer cell (PDC) lines: 292921-168-R-J2-PDC, K24384-001-R-PDC, and 521955-158-R2-J5-PDC pancreatic carcinomas, 556581-035-R-J1 ovarian carcinoma, 324938-238-R-J1-PDC, 855422-203-R-J1-PDC and 883617-216-R-J1-PDC urothelial bladder carcinomas, 743489-274-T-PDC renal cell carcinoma, 138582-R-J1 Merkel cell tumor, K60290-347-R-J1 and K57222-313-R-J1-PDC glioblastomas, 653999-131-R-J2-PDC, LG0703-F948-PDC, and 349418-098-R-PDC non-small cell lung carcinomas, 885512-296-R-J2-PDC, 171881-019-R-J1-PDC breast carcinomas and 186277-243-T-J2-PDC and 233499-124-R-J2-PDC colon carcinomas were obtained from the NCI Patient-Derived Models Repository (PDMR, https://pdmr.cancer.gov). The established cell lines NCI/ADR-RES (RRID:CVCL_14520 and OVCAR-5 (RRID:CVCL_1628) ovarian carcinomas, 786-O (RRID:CVCL_1051) and A498 (RRID:CVCL_A498) renal cell carcinoma, NCI-H211 (ATCC, cat. CRL-5824; RRID:CVCL_1529), NCI-H196 (ATCC, cat. CRL-5823, RRID:CVCL_1509), SW 1271 (ATCC, cat. CRL-2177, RRID:CVCL_1716) and NCI-H1876 (ATCC, cat. CRL-5902, RRID:CVCL_1503) small cell lung carcinomas, MDA-MB-231 (RRID:CVCL_0062) and MDA-MB-468 (RRID:CVCL_0419)breast carcinomas (10-12). Pooled donor human umbilical vein endothelial cells (HUVEC, Lonza, cat. CC-2519) and human mesenchymal stem cells (hMSC, Lonza, cat. PT-2501) were purchased from Lonza (Walkersville, MD).
Cell Culture. All cells were maintained in an incubator at 37 degrees C and 5% CO2 with 95% humidity. The PDC lines were cultured according to standard operating procedures established by the NCI PDMR (https://pdmr.cancer.gov). Briefly all PDCs were thawed and cultured in Matrigel-coated flasks prepared with a working solution of 1X Ham's F-12 nutrient mix, without supplementation (Invitrogen, Waltham, MA, cat. 11765054), 100 U/mL penicillin-streptomycin (Invitrogen, cat. 15140122), and 2.5% Matrigel (Corning Inc., Corning, NY, cat. 354248) for the first three passages. […]

[1] = second compound 0.1 µM, first compound 0.00316 µM
[2] = second compound 0.1 µM, first compound 0.01 µM
[3] = second compound 0.1 µM, first compound 0.0316 µM
[4] = second compound 0.1 µM, first compound 0.1 µM
[5] = second compound 0.316 µM, first compound 0.00316 µM
[6] = second compound 0.316 µM, first compound 0.01 µM
[7] = second compound 0.316 µM, first compound 0.0316 µM
[8] = second compound 0.316 µM, first compound 0.1 µM
[9] = second compound 1 µM, first compound 0.00316 µM
[10] = second compound 1 µM, first compound 0.01 µM
[11] = second compound 1 µM, first compound 0.0316 µM
[12] = second compound 1 µM, first compound 0.1 µM
[13] = second compound 3.16 µM, first compound 0.00316 µM
[14] = second compound 3.16 µM, first compound 0.01 µM
[15] = second compound 3.16 µM, first compound 0.0316 µM
[16] = second compound 3.16 µM, first compound 0.1 µM
[17] = second compound 10 µM, first compound 0.00316 µM
[18] = second compound 10 µM, first compound 0.01 µM
[19] = second compound 10 µM, first compound 0.0316 µM
[20] = second compound 10 µM, first compound 0.1 µM

SMILES: CC[C@@]1(O)C(=O)OCc2c1cc1n(c2=O)Cc2cc3c(CN(C)C)c(O)ccc3nc2-1 + NC1CC1c1ccc(-c2cccc(O)c2)cc1
- IC50 (second compound 0.1 µM): 8.38 nM
- IC50 (second compound 0.316 µM): 8.87 nM
- IC50 (second compound 1 µM): 10.5 nM
- IC50 (second compound 3.16 µM): 13.3 nM
- IC50 (second compound 10 µM): 13.2 nM
- viability, T/C (second compound 0.1 µM, first compound 0.000316 µM): 110%
- viability, T/C (second compound 0.1 µM, first compound 0.001 µM): 101%
- viability, T/C [1]: 84.9%
- viability, T/C [2]: 43.3%
- viability, T/C [3]: 13.4%
- viability, T/C [4]: 2.49%
- viability, T/C (second compound 0.316 µM, first compound 0.000316 µM): 111%
- viability, T/C (second compound 0.316 µM, first compound 0.001 µM): 103%
- viability, T/C [5]: 86.2%
- viability, T/C [6]: 45.2%
- viability, T/C [7]: 14.9%
- viability, T/C [8]: 2.48%
- viability, T/C (second compound 1 µM, first compound 0.000316 µM): 101%
- viability, T/C (second compound 1 µM, first compound 0.001 µM): 98.9%
- viability, T/C [9]: 83.5%
- viability, T/C [10]: 52.2%
- viability, T/C [11]: 16.3%
- viability, T/C [12]: 2.84%
- viability, T/C (second compound 3.16 µM, first compound 0.000316 µM): 97%
- viability, T/C (second compound 3.16 µM, first compound 0.001 µM): 94%
- viability, T/C [13]: 81.2%
- viability, T/C [14]: 60.1%
- viability, T/C [15]: 23.7%
- viability, T/C [16]: 4.48%
- viability, T/C (second compound 10 µM, first compound 0.000316 µM): 95.1%
- viability, T/C (second compound 10 µM, first compound 0.001 µM): 82.3%
- viability, T/C [17]: 74.2%
- viability, T/C [18]: 57.1%
- viability, T/C [19]: 31.4%
- viability, T/C [20]: 9.59%

SMILES: COc1cc(C2c3cc4c(cc3C(OC3OC5COC(C)OC5C(O)C3O)C3COC(=O)C23)OCO4)cc(OC)c1O (stereo not given) + NC1CC1c1ccc(-c2cccc(O)c2)cc1
- IC50 (second compound 0.1 µM): > 3000 nM
- IC50 (second compound 0.316 µM): > 3000 nM
- IC50 (second compound 1 µM): > 3000 nM
- IC50 (second compound 3.16 µM): > 3000 nM
- IC50 (second compound 10 µM): > 3000 nM
- viability, T/C (second compound 0.1 µM, first compound 0.00949 µM): 104%
- viability, T/C (second compound 0.1 µM, first compound 0.03 µM): 112%
- viability, T/C (second compound 0.1 µM, first compound 0.0949 µM): 106%
- viability, T/C (second compound 0.1 µM, first compound 0.3 µM): 101%
- viability, T/C (second compound 0.1 µM, first compound 0.949 µM): 100%
- viability, T/C (second compound 0.1 µM, first compound 3 µM): 90.4%
- viability, T/C (second compound 0.316 µM, first compound 0.00949 µM): 113%
- viability, T/C (second compound 0.316 µM, first compound 0.03 µM): 104%
- viability, T/C (second compound 0.316 µM, first compound 0.0949 µM): 106%
- viability, T/C (second compound 0.316 µM, first compound 0.3 µM): 104%
- viability, T/C (second compound 0.316 µM, first compound 0.949 µM): 103%
- viability, T/C (second compound 0.316 µM, first compound 3 µM): 92.6%
- viability, T/C (second compound 1 µM, first compound 0.00949 µM): 102%
- viability, T/C (second compound 1 µM, first compound 0.03 µM): 101%
- viability, T/C (second compound 1 µM, first compound 0.0949 µM): 99.6%
- viability, T/C (second compound 1 µM, first compound 0.3 µM): 96.5%
- viability, T/C (second compound 1 µM, first compound 0.949 µM): 92.7%
- viability, T/C (second compound 1 µM, first compound 3 µM): 92.4%
- viability, T/C (second compound 3.16 µM, first compound 0.00949 µM): 98.5%
- viability, T/C (second compound 3.16 µM, first compound 0.03 µM): 100%
- viability, T/C (second compound 3.16 µM, first compound 0.0949 µM): 95.2%
- viability, T/C (second compound 3.16 µM, first compound 0.3 µM): 95.7%
- viability, T/C (second compound 3.16 µM, first compound 0.949 µM): 94.2%
- viability, T/C (second compound 3.16 µM, first compound 3 µM): 84.9%
- viability, T/C (second compound 10 µM, first compound 0.00949 µM): 84.6%
- viability, T/C (second compound 10 µM, first compound 0.03 µM): 81%
- viability, T/C (second compound 10 µM, first compound 0.0949 µM): 79.3%
- viability, T/C (second compound 10 µM, first compound 0.3 µM): 80.2%
- viability, T/C (second compound 10 µM, first compound 0.949 µM): 78.6%
- viability, T/C (second compound 10 µM, first compound 3 µM): 71.1%

SMILES: Nc1ncn(C2CC(O)C(CO)O2)c(=O)n1 (stereo not given) + NC1CC1c1ccc(-c2cccc(O)c2)cc1
- IC50 (second compound 0.1 µM): 49.3 nM
- IC50 (second compound 0.316 µM): 49.1 nM
- IC50 (second compound 1 µM): 38.4 nM
- IC50 (second compound 3.16 µM): 46 nM
- IC50 (second compound 10 µM): 25.4 nM
- viability, T/C [1]: 90.5%
- viability, T/C [2]: 79.4%
- viability, T/C [3]: 61.5%
- viability, T/C [4]: 32.8%
- viability, T/C (second compound 0.1 µM, first compound 0.316 µM): 19.9%
- viability, T/C (second compound 0.1 µM, first compound 1 µM): 13.6%
- viability, T/C [5]: 93.3%
- viability, T/C [6]: 83%
- viability, T/C [7]: 62%
- viability, T/C [8]: 31.3%
- viability, T/C (second compound 0.316 µM, first compound 0.316 µM): 17.8%
- viability, T/C (second compound 0.316 µM, first compound 1 µM): 12.5%
- viability, T/C [9]: 88.5%
- viability, T/C [10]: 77.5%
- viability, T/C [11]: 53.4%
- viability, T/C [12]: 30.4%
- viability, T/C (second compound 1 µM, first compound 0.316 µM): 15.8%
- viability, T/C (second compound 1 µM, first compound 1 µM): 10.8%
- viability, T/C [13]: 94.6%
- viability, T/C [14]: 78.3%
- viability, T/C [15]: 61%
- viability, T/C [16]: 32%
- viability, T/C (second compound 3.16 µM, first compound 0.316 µM): 15%
- viability, T/C (second compound 3.16 µM, first compound 1 µM): 12.4%
- viability, T/C [17]: 73.5%
- viability, T/C [18]: 63.7%
- viability, T/C [19]: 45.5%
- viability, T/C [20]: 32.2%
- viability, T/C (second compound 10 µM, first compound 0.316 µM): 16.1%
- viability, T/C (second compound 10 µM, first compound 1 µM): 11.8%
